Molecular target: Histamine H1 receptor (Homo sapiens, UniProt P35367)
Assay: Antagonistic activity against histamine H1 receptor
Format: functional

Histamine H1 receptor, sequence (P35367 whole entry): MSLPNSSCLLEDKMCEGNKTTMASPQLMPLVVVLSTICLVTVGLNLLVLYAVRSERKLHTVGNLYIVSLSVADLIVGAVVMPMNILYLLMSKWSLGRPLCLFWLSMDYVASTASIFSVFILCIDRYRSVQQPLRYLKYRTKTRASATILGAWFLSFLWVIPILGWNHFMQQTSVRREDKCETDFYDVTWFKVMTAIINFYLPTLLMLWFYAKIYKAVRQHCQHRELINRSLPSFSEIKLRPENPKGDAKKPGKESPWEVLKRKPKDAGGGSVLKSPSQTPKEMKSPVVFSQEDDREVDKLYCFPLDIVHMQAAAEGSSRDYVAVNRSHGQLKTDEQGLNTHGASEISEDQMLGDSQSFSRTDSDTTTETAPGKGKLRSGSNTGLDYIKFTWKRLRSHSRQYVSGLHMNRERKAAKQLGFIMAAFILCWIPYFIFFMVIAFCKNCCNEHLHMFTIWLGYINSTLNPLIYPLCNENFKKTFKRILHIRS

Structure (SMILES)	IC50 [nM]
COc1cc(C(=O)N2CCC(CCN3CCC(C(=O)c4nc5ccccc5n4Cc4ccc(F)cc4)CC3)(c3ccc(F)cc3F)C2)cc(OC)c1OC (stereo not drawn)	437
COc1ccc(C2(CCN3CCC(C(=O)c4nc5ccccc5n4Cc4ccc(C(=O)O)cc4)CC3)CCN(C(=O)c3cc(OC)c(OC)c(OC)c3)C2)cc1OC (stereo not drawn)	27500
CC(C)Oc1cccc(CC(=O)N2CCC(CCN3CCC(C(=O)c4nc5ccccc5n4Cc4ccc(F)cc4)CC3)(c3ccc4c(c3)OCO4)C2)c1 (stereo not drawn)	251
COc1cc(C(=O)N2CCC(CCN3CCC(C(=O)c4nc5ccccc5n4Cc4ccc(F)cc4)CC3)(c3ccc4c(c3)OCO4)C2)cc(OC)c1OC (stereo not drawn)	204
CCOCCn1c(C(=O)C2CCN(CCC3(c4ccccc4)CCN(C(=O)c4cc(OC)c(OC)c(OC)c4)C3)CC2)nc2ccccc21 (stereo not drawn)	380
COc1ccc(C2(CCN3CCC(C(=O)c4nc5ccccc5n4Cc4ccc(F)cc4)CC3)CCN(C(=O)c3ccccc3)C2)cc1OC (stereo not drawn)	240
COC(=O)c1ccc(Cn2c(C(=O)C3CCN(CCC4(c5ccccc5)CCN(C(=O)c5cc(OC)c(OC)c(OC)c5)C4)CC3)nc3ccccc32)cc1 (stereo not drawn)	1170
COc1cc(C(=O)N2CCC(CCN3CCC(C(=O)c4nc5ccccc5n4Cc4cccnc4)CC3)(c3ccccc3)C2)cc(OC)c1OC (stereo not drawn)	417
CCOc1cc(C(=O)N2CCC(CCN3CCC(C(=O)c4nc5ccccc5n4Cc4ccc(F)cc4)CC3)(c3ccc(OC)c(OC)c3)C2)cc(OCC)c1OCC (stereo not drawn)	158
COc1cc(C(=O)N2CCC(CCN3CCC(C(=O)c4nc5ccccc5n4Cc4ccc(C(=O)O)cc4)CC3)(c3ccccc3)C2)cc(OC)c1OC (stereo not drawn)	33900
COc1cc(C(=O)N2CCC(CCN3CCC(C(=O)c4nc5ccccc5n4CCCCOc4ccccc4C(=O)O)CC3)(c3ccccc3)C2)cc(OC)c1OC (stereo not drawn)	9120
COc1ccc(C2(CCN3CCC(C(=O)c4nc5ccccc5n4Cc4ccccn4)CC3)CCN(C(=O)c3cc(OC)c(OC)c(OC)c3)C2)cc1 (stereo not drawn)	501
COc1ccc(C2(CCN3CCC(C(=O)c4nc5ccccc5n4Cc4ccc(F)cc4)CC3)CCN(C(=O)c3cc(OC)c(OC)c(OC)c3)C2)cc1OC (stereo not drawn)	331
COc1ccc(C(=O)N2CCC(CCN3CCC(C(=O)c4nc5ccccc5n4Cc4ccc(F)cc4)CC3)(c3ccc4c(c3)OCO4)C2)c(OC)c1OC (stereo not drawn)	257
COc1cc(C(=O)N2CCC(CCN3CCC(C(=O)c4nc5ccccc5n4Cc4ccc(F)cc4)CC3)(c3ccc(C(F)(F)F)cc3)C2)cc(OC)c1OC (stereo not drawn)	468
CCOCCn1c(C(=O)C2CCN(CCC3(c4ccc(F)cc4)CCN(Cc4cc(OC)c(OC)c(OC)c4)C3=O)CC2)nc2ccccc21 (stereo not drawn)	251
COC(=O)c1ccccc1OCCCn1c(C(=O)C2CCN(CCC3(c4ccccc4)CCN(C(=O)c4cc(OC)c(OC)c(OC)c4)C3)CC2)nc2ccccc21 (stereo not drawn)	1000
COc1ccc(CCN2CCC(C(=O)c3nc4ccccc4n3Cc3ccc(F)cc3)CC2)cc1	58.9
COc1cc(C(=O)N2CCC(CCN3CCC(C(=O)c4nc5ccccc5n4CCOCc4ccco4)CC3)(c3ccccc3)C2)cc(OC)c1OC (stereo not drawn)	447
COc1cc(C(=O)N2CCC(CCN3CCC(C(=O)c4nc5ccccc5n4Cc4ccco4)CC3)(c3ccccc3)C2)cc(OC)c1OC (stereo not drawn)	295
COC(=O)c1ccc(Cn2c(C(=O)C3CCN(CCC4(c5ccc(OC)c(OC)c5)CCN(C(=O)c5cc(OC)c(OC)c(OC)c5)C4)CC3)nc3ccccc32)cc1 (stereo not drawn)	955
COc1ccc(C2(CCN3CCC(C(=O)c4nc5ccccc5[nH]4)CC3)CCN(C(=O)c3cc(OC)c(OC)c(OC)c3)C2)cc1OC (stereo not drawn)	1950
COc1cc(C(=O)N2CCC(CCN3CCC(C(=O)c4nc5ccccc5n4Cc4ccccn4)CC3)(c3ccccc3)C2)cc(OC)c1OC (stereo not drawn)	363
O=C(c1nc2ccccc2n1Cc1ccc(F)cc1)C1CCN(CCC2(c3ccc4c(c3)OCO4)CCN(C(=O)c3ccc(Cl)cc3Cl)C2)CC1 (stereo not drawn)	129
COc1ccc(CCN2CCC(=Nc3nc4ccccc4n3Cc3ccc(F)cc3)CC2)cc1	46.8

Second part, the molecule after the results:

IC50 [nM]	Structure (SMILES)
955	CCOC(=O)CCCn1c(C(=O)C2CCN(CCC3(c4ccc(Cl)c(Cl)c4)CCN(C(=O)c4cc(OC)c(OC)c(OC)c4)C3)CC2)nc2ccccc21 (stereo not drawn)
407	COc1cc(C(=O)N2CCC(CCN3CCC(C(=O)c4nc5ccccc5[nH]4)CC3)(c3ccc(Cl)c(Cl)c3)C2)cc(OC)c1OC (stereo not drawn)
631	CCOCCn1c(C(=O)C2CCN(CCC3(c4ccc(OC)c(OC)c4)CCN(C(=O)c4cc(OC)c(OC)c(OC)c4)C3)CC2)nc2ccccc21 (stereo not drawn)
214	COc1cc(C(=O)N2CCCC(CCN3CCC(C(=O)c4nc5ccccc5n4Cc4ccc(F)cc4)CC3)(c3ccc(Cl)c(Cl)c3)C2)cc(OC)c1OC (stereo not drawn)
501	COc1cc(C(=O)N2CCC(CCN3CCC(C(=O)c4nc5ccccc5[nH]4)CC3)(c3ccccc3)C2)cc(OC)c1OC (stereo not drawn)
282	COc1cc(C(=O)N2CCC(CCN3CCC(C(=O)c4nc5ccccc5n4Cc4ccncc4)CC3)(c3ccccc3)C2)cc(OC)c1OC (stereo not drawn)
562	COc1cc(C(=O)N2CCC(CCN3CCC(C(=O)c4nc5ccccc5n4Cc4ccccn4)CC3)(c3ccc(F)cc3)C2)cc(OC)c1OC (stereo not drawn)
10000	COc1cc(C(=O)N2CCC(CCN3CCC(C(=O)c4nc5ccccc5n4CCCC(=O)O)CC3)(c3ccc(Cl)c(Cl)c3)C2)cc(OC)c1OC (stereo not drawn)
437	COc1cc(C(=O)N2CCC(CCN3CCC(C(=O)c4nc5ccccc5n4Cc4ccccn4)CC3)(c3ccc(Cl)c(Cl)c3)C2)cc(OC)c1OC (stereo not drawn)
339	CCOCCn1c(C(=O)C2CCN(CCC3(c4ccc(Cl)c(Cl)c4)CCN(C(=O)c4cc(OC)c(OC)c(OC)c4)C3)CC2)nc2ccccc21 (stereo not drawn)
550	COc1cc(C(=O)N2CCC(CCN3CCC(C(=O)c4nc5ccccc5n4CCN4CCOCC4)CC3)(c3ccc(Cl)c(Cl)c3)C2)cc(OC)c1OC (stereo not drawn)
282	COc1cc(C(=O)N2CCC(CCN3CCC(C(=O)c4nc5ccccc5n4Cc4ccc(F)cc4)CC3)(c3ccc(Cl)c(Cl)c3)C2)cc(OC)c1OC (stereo not drawn)
234	COc1cc(C(=O)N2CCC(CCN3CCC(C(=O)c4nc5ccccc5n4Cc4ccc(F)cc4)CC3)(c3ccccc3)C2)cc(OC)c1OC (stereo not drawn)

From ChEMBL document CHEMBL1129219, “Use of CoMFA in validating the conformation used in designing 4-(1H-benzimidazole-2-carbonyl)piperidines with H1/NK1 receptor antagonist activity” (Bioorg Med Chem Lett, 1997)
